One compound from US8815565B2, “Method for culturing mycoplasma contamination-free cells and method for removing mycoplasma contamination of cells” (Cellsafe Co., Ltd., priority 2010, dated 2014) can be followed below.

The structures appear in SMILES notation. In brackets after ≈: the same amount, converted by molar mass.

Experiment [1] has as its system Mycoplasma hyorhinis (ATCC17981s). Briefly: Inhibition of Mycoplasma hyorhinis cultured in PPLO medium, INT colour change. The format is cell-based. The settings on record: Mycoplasma, read-out: concentration showing excellent inhibitory activity against mycoplasma. As to the method: In order to evaluate the effects of the extract and amphidinol derivatives prepared in Example 1 on mycoplasma, Mycoplasma hyorhinis (ATCC17981s) was cultured in a PPLO medium (pleuropneumonia-like organism basal medium, Difco Laboratories, Detroit, USA) supplemented with a fetal calf serum and a yeast extract, according to the method disclosed by Hayflick (Hayflick, 1965, Tex. Rep. Bio. Med. 23, 285-303). That is, 100 μl of the medium was placed on each well of a 96-well plate, and a sample (that is, the extract and amphidinol derivatives prepared in Example 1) was added to each well, such that each sample was diluted from 2 times (i.e., 2× diluted) to 12 times (i.e., 12× diluted), the starting concentration being 1 mg/ml. Mycoplasma was cultured in a PPLO medium (pleuropneumonia-like organism basal medium, Difco Laboratories, Detroit, USA) supplemented with a fetal calf serum and a yeast extract, at a temperature of 37° C. for 48 hours. The resulting culture medium was diluted with the PPLO medium at a ratio of 1:10. 100 μl of the diluted culture medium was added to each well of the 96-well plate, so that the total amount of each well was 200 μl. After culturing at a temperature of 37° C. for 24 hours, 40 μl of 0.2 mg/ml INT (p-iodonitrotetrazolium) was added thereto and culturing was further performed for 4 hours. If the medium turns pink following the culturing, the color change means that metabolism of mycoplasma actively occurs. Also, if mycoplasma is suppressed by the sample, the medium turned pink less.

Experiment [2] has as its system cell lines NIH3T3, HepG2, and Raw 264.7 contaminated with mycoplasma. Briefly: Removing mycoplasma from contaminated cell lines with AM3, PCR with mycoplasma diagnosis kit. The settings on record: 20 μg/ml, two 3-day cultures; NIH3T3, HepG2, Raw 264.7. The format is cell-based. As to the method:
Various cell lines constructed in laboratories of colleges located in Seoul were obtained. The obtained cell lines were cultured in a DMEM (GIBCO BRL, Cat. No. 12800-058) for 3 days, and then the cells were harvested. PCR was performed thereon with a mycoplasma diagnosis kit (Promokine, Germany; Cellsafe Co., Ltd., Korea) according to the enclosed protocol. The resulting PCR products were electrophoresed on a 1% agarose gel to measure the mycoplasma contamination. As a result, it was confirmed that three cell strains, i.e., NIH3T3, HepG2, Raw 264.7 cell lines, were infected with mycoplasma (see FIG. 1).
The cell lines NIH3T3, HepG2, and Raw 264.7, which were confirmed to be contaminated with mycoplasma, were each inoculated at a concentration of 1×10^6 cells on a T-75 culture flask (NUNC, Cat. No. 156367). DMEM (GIBCO BRL, Cat. No. 12800-058) containing 10% or less of serum (GIBCO BRL, Cat. No. 10082-147) was added thereto, followed by culturing for 3 days.
The cell lines NIH3T3, HepG2, and Raw 264.7, which were confirmed to be contaminated with mycoplasma, were each inoculated at a concentration of 1×10^6 cells on a T-75 culture flask (NUNC, Cat. No. 156367). DMEM (GIBCO BRL, Cat. No. 12800-058) containing 10% or less of serum (GIBCO BRL, Cat. No. 10082-147) was added thereto and then 20 μg/ml of amphidinol 3 (AM3) was added thereto. […]

Regarding `C=C/C=C/CC/C=C/C=C/C=C/CC/C=C/C(O)C(O)C1OC(C(O)C(O)C(=C)CCC(O)C2CC(O)C(O)C(C(O)C(O)/C=C(\C)CCC(O)CC(O)C(O)C(C)CC(O)C(O)CCCCCC(O)CCCC(O)/C=C/CC(O)/C=C/CC(O)CO)O2)CC(O)C1O` (centres unmarked) [AM3, amphidinol 3], the IC50 in experiment [1] was approximately 0.25 µg/mL (≈ 0.188 µM). Besides, in experiment [2], the mycoplasma contamination result is “completely removed”.
